The values that follow are results of earlier work, collected in US6069254A, “Carboxamide derivatives of piperidine for the treatment of thrombosis disorders” (Ortho Pharmaceutical Corp., priority 1997, dated 2000).

For series [1], the system named is platelets (thrombin-induced platelet aggregation). The settings on record: L. Alig, J. Med. Chem. 1992, 35, 4393; read-out: IC50 against in vitro thrombin-induced platelet aggregation; cited from earlier work.
Series [2] deals with GPIIb/IIIa (Homo sapiens, UniProt P05106+P08514). The settings on record: background statement; cited from earlier work.

With `CN(CC(=O)c1ccc(OCC(=O)O)c(OCC(=O)O)c1)C(=O)c1ccc(C(=N)N)cc1` [Ro-438857], in series [1], the IC50 is 94 nM.

Take Arg-Gly-Asp [Arg-Gly-Asp (RGD)]: the “inhibition of fibrinogen binding to GPIIb/IIIa” value in series [2] is recorded as “shown to inhibit fibrinogen binding to GPIIb/IIIa”.

Regarding “HHLGGAKQAGDV [γ-chain peptide region of fibrinogen, γ400-411]”, the “inhibition of fibrinogen binding to GPIIb/IIIa” value in series [2] is on record as “shown to inhibit fibrinogen binding to GPIIb/IIIa”.
